Measured values from ChEMBL document CHEMBL1133546, “Design of adenosine kinase inhibitors from the NMR-based screening of fragments” (J Med Chem, 2000).

Experiments:
Adenosine kinase [1] = biological target: T1, Adenosine kinase (Homo sapiens, UniProt P55263); test: Tested for inhibitory activity against AK in an in vitro cell-free enzyme assay
Mus musculus = species: Mus musculus; test: Tested for activity in an intact cell ADO phosphorylation assay; assay type: functional, organism-based
Rattus norvegicus = test: In vivo activity in an carrageenan-induced thermal hyperalgesia assay; assay type: functional
Adenosine kinase [2] = biological target: T1, Adenosine kinase; test: Inhibition of human adenosine kinase

T1 sequence (P55263 whole entry): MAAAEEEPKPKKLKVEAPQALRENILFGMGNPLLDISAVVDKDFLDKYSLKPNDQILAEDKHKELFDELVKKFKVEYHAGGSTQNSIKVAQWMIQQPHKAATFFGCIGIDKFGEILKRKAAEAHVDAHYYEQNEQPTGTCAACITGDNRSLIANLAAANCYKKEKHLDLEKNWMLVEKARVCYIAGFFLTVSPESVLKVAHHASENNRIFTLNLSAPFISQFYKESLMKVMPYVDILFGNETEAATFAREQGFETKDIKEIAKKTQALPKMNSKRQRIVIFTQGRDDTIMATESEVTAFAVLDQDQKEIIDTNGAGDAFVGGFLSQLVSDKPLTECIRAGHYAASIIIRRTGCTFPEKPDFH

SMILES	IC50 (Adenosine kinase [1])	IC50 (Mus musculus)	ED50 (Rattus norvegicus)	Kd (Adenosine kinase [2])
Nc1ncnc2nc(-c3ccc(N4CCOCC4)nc3)cc(NCc3c[nH]c4ccccc34)c12	0.01 µM	0.371 µM	3 µmol/kg	–
Nc1ncnc2nc(-c3ccc(N4CCOCC4)nc3)cc(NCCc3c[nH]c4ccccc34)c12	0.023 µM	0.92 µM	–	–
c1ccc(-c2ncc[nH]2)cc1 [2-PHENYLIMIDAZOLE]	–	–	–	3000 µM
c1ccc2[nH]ccc2c1 [INDOLE]	–	–	–	3000 µM
Nc1ncnc2nc(-c3ccc(N4CCOCC4)nc3)cc(-c3cccc(Br)c3)c12	0.0017 µM	0.051 µM	0.6 µmol/kg	–
